Source: US11046691B1 (IDEAYA BIOSCIENCES, INC., priority 2018, dated 2021)

Molecular target: hMAT2A (Homo sapiens (Human), UniProt P31153)
Experiment: Phosphate Sensor Fluorescence Assay (MAT2A enzyme inhibition)
Assay type: biochemical
Settings: L-methionine 500 uM, ATP 500 uM, class symbols
Summary of the method: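 Recombinant MAT2A preincubated 15 min at room temperature with compound, then reacted 1 h at room temperature with 500 uM L-methionine and 500 uM ATP in Tris pH 7.5 buffer containing PNP/7-MEG.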

Chain of hMAT2A (P31153 whole entry): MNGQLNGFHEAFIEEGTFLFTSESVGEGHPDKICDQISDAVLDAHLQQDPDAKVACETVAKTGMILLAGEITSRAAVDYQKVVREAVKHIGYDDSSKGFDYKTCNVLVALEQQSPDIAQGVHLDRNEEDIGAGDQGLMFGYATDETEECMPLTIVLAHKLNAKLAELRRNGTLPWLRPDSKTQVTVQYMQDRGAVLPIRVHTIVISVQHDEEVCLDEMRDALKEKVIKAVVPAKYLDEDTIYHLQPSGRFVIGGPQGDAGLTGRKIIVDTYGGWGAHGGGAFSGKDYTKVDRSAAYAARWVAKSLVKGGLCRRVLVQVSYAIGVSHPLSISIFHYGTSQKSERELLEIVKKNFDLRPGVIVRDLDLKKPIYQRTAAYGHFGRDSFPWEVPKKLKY

Row | Compound | IC50 [nM]
1 | CNc1nc(=O)n(-c2cncc(O)c2)c2nc(C(F)(F)F)ccc12 [Example 390, 1-(5-hydroxypyridin-3-yl)-4-(methyl-amino)-7-(trifluoromethyl)pyrido[2,3-d]-pyrimidin-2(1H)-one] | < 200
2 | CNc1nc(=O)n(-c2ncccc2Cl)c2nc(C(F)(F)F)ccc12 [Example 261, 1-(3-chloro(2-pyridyl))-4-(methyl-amino)-7-(trifluoromethyl)pyrido[2,3-d]-pyrimidin-2(1H)-one] | < 200
3 | O=c1nc(N2CC[C@@H](O)C2)c2ccc(Cl)cc2n1-c1ccc2[nH]cnc2c1 [Example 281, (R)-7-chloro-4-(3-hydroxypyrrolidin-1-yl)-1-(1H-benzimidazol-5-yl)quinazolin-2(1H)-one] | < 200
4 | Cc1ccccc1-n1c(=O)nc(N)c2ccc(C(F)(F)F)nc21 [Example 169, 4-amino-1-(2-methylphenyl)-7-(trifluoromethyl)pyrido[2,3-d]pyrimidin-2(1H)-one] | < 200
5 | COC1CCN(c2nc(=O)n(-c3ccccc3)c3cc(Cl)ccc23)C1 (stereo not shown) [Example 230, 7-chloro-4-(3-methoxypyrrolidin-1-yl)-1-phenylquinazolin-2(1H)-one] | < 200
6 | O=c1[nH]c(=O)n(-c2ccccc2Cl)c2nc(C(F)(F)F)ccc12 [Example 388, 1-(2-chlorophenyl)-7-(trifluoromethyl)-1,3-dihydropyridino[2,3-d]pyrimidine-2,4-dione] | < 200
7 | CNc1nc(=O)n(-c2ccccc2Cl)c2cc(C(F)(F)F)c(F)cc12 [Example 304, 1-(2-chlorophenyl)-6-fluoro-4-(methyl-amino)-7-(trifluoromethyl)hydro-quinazolin-2-one] | < 200
8 | CNc1nc(=O)n(-c2cc(O)ccc2C)c2cc(Cl)ccc12 [Example 109, 7-chloro-1-(3-hydroxy-6-methylphenyl)-4-(methylamino)hydroquinazolin-2-one] | < 200
9 | O=c1nc(N2CC[C@@H](O)C2)c2ccc(C(F)(F)F)nc2n1-c1ccccc1 [Example 170, (R)-4-(3-hydroxypyrrolidin-1-yl)-1-phenyl-7-(trifluoromethyl)pyrido[2,3-d]-pyrimidin-2(1H)-one] | < 200
10 | CNc1nc(=O)n(-c2cccc(C#N)c2)c2nc(C(F)(F)F)ccc12 [Example 179, 3-[4-(methylamino)-2-oxo-7-(trifluoro-methyl)pyrido[2,3-d]pyrimidin-1(2H)-yl)benzonitrile] | < 200
11 | O=c1[nH]c(=O)n(-c2ccccc2)c2cc(C3CC3)ccc12 [Example 130, 7-cyclopropyl-1-phenyl-1,3-dihydro-quinazoline-2,4-dione] | 500 to 1000
12 | CO[C@H]1C[C@@H](Nc2nc(=O)n(-c3ccccc3Cl)c3nc(C(F)(F)F)ccc23)C1 [Example 270, 1-(2-chlorophenyl)-4-(((1s,3s)-3-methoxycyclobutyl)amino)-7-(trifluoro-methyl)pyrido[2,3-d]pyrimidin-2(1H)-one] | < 200
13 | Cc1ncccc1-n1c(=O)nc(N)c2ccc(C(F)(F)F)cc21 [Example 285] | < 200
14 | C[C@H](O)CNc1nc(=O)n(-c2ccccc2Cl)c2nc(C(F)(F)F)ccc12 [Example 293, 4-[((2S)-2-hydroxypropyl)amino]-1-(2-chlorophenyl)-7-(trifluoromethyl)-pyrido[2,3-d]pyrimidin-2(1H)-one] | < 200
15 | O=c1nc(NCCO)c2ccc(C(F)(F)F)nc2n1-c1ccccc1Cl [Example 296, 1-(2-chlorophenyl)-4-[(2-hydroxy-Iethyl)amino]-7-(trifluoromethyl) pyrido[2,3-d]pyrimidin-2(1H)-one] | < 200
16 | N#Cc1cc2c(NCC3CCO3)nc(=O)n(-c3ccccc3Cl)c2cc1C1CC1 (stereo not shown) [Example 408, 1-(2-chlorophenyl)-7-cyclopropyl-4-((oxetan-2-ylmethyl)amino)-2-oxo-1,2-dihydroquinazoline-6-carbonitrile] | 500 to 1000
17 | O=c1nc(NC2CC2)c2ccc(C(F)(F)F)nc2n1-c1ccccc1Cl [Example 308, 1-(2-chlorophenyl)-4-(cyclopropyl-amino)-7-(trifluoromethyl)pyrido[2,3-d]pyrimidin-2(1H)-one] | < 200
18 | [2H]C([2H])([2H])Nc1nc(=O)n(-c2ccccc2C)c2nc(C(F)(F)F)ccc12 [Example 272, 4-((methyl-d3)amino)-1-(2-methyl-phenyl)-7-(trifluoromethyl)pyrido[2,3-d]pyrimidin-2(1H)-one] | < 200
19 | CNc1nc(=O)n(-c2ccc3[nH]cnc3c2)c2cc(Cl)ccc12 [Example 307, 1-benzimidazol-5-yl-7-chloro-4-(methyl-amino)hydroquinazolin-2-one] | < 200
20 | Nc1nc(=O)n(-c2ccccc2)c2cc(C3CC3)ccc12 [Example 400, 4-amino-7-cyclopropyl-1-phenylhydro-quinazolin-2-one] | < 200
21 | CN(C)c1nc(=O)n(-c2ccc3[nH]ncc3c2)c2cc(Cl)ccc12 [Example 280, 7-chloro-4-(dimethylamino)-1-(1H-indazol-5-yl)quinazolin-2(1H)-one] | < 200
22 | NC(=O)[C@@H]1CCCN1c1nc(=O)n(-c2ccccc2)c2cc(Cl)ccc12 [Example 240, (2S)-1-(7-chloro-2-oxo-1-phenylhydro-quinazolin-4-yl)pyrrolidine-2-carboxamide] | 1000 to 10000
23 | CNc1nc(=O)n(-c2ccccc2Cl)c2nc(C(F)(F)F)ccc12 [Example 178, 1-(2-chlorophenyl)-4-(methylamino)-7-(trifluoromethyl)pyrido[2,3-d]pyrimidin-2(1H)-one] | < 200
24 | O=c1nc(N2CC(O)C2)c2ccc(C(F)(F)F)nc2n1-c1ccccc1 [Example 171, 4-(3-hydroxyazetidin-1-yl)-1-phenyl-7-(trifluoromethyl)pyrido[2,3-d]pyrimidin-2(1H)-one] | < 200
25 | Cc1nc(=O)n(-c2ccccc2)c2cc(Cl)ccc12 [Example 242, 7-chloro-4-methyl-1-phenylhydro-quinazolin-2-one] | 500 to 1000
26 | N#Cc1cccc(-n2c(=O)nc(N3CC(O)C3)c3ccc(C(F)(F)F)cc32)c1 [Example 139, 3-[4-(3-hydroxyazetidinyl)-2-oxo-7-(trifluoromethyl)hydroquinazolinyl]-benzenecarbonitrile] | < 200
27 | CNc1nc(=O)n(-c2nccn2C)c2cc(Cl)ccc12 [Example 188] | 200 to 500

Same assay, conditions: L-methionine 500 uM, ATP 500 uM, numeric bound

Row | Compound | IC50 [nM]
28 | O=c1nc(O)c2c(-c3ccncc3)cc(Cl)cc2n1-c1ccccc1 [Example 291, 7-chloro-4-hydroxy-1-phenyl-5-(pyridin-4-yl)quinazolin-2(1H)-one] | > 10000
29 | CNc1nc(=O)n(-c2nc(C(F)(F)F)cs2)c2cc(Cl)ccc12 [Example 113, 7-chloro-4-(methylamino)-1-[4-(trifluoromethyl)(1,3-thiazol-2-yl)]hydroquinazolin-2-one] | > 10000
30 | CNc1nc(=O)n(-c2ccccc2)c2cc(Cl)cc(-n3nccn3)c12 [Example 209, 7-chloro-4-(methylamino)-1-phenyl-5-(1,2,3-triazol-2-yl)quinazolin-2(1H)-one] | > 10000
31 | CNc1nc(=O)n(-c2cc(OC)ccn2)c2nc(C(F)(F)F)ccc12 [Example 93, 1-(4-methoxypyridin-2-yl)-4-(methyl-amino)-7-(trifluoromethyl)pyrido[2,3-d]pyrimidin-2(1H)-one] | > 10000
